Laboratory results from patent US9434724B2, “Quinuclidines for modulating alpha 7 activity” (priority 2014, dated 2016).
Where two headings read alike, the source gives them in different places.

Columns and labels:
[1] = molecular target: CYP1A2 (Homo sapiens (Human), UniProt P05177); assay: Cytochrome P450 inhibition in human liver microsomes, CYP1A2
[2] = molecular target: CYP2C19 (Homo sapiens (Human), UniProt P33261); assay: Cytochrome P450 inhibition in human liver microsomes, CYP2C19
[3] = molecular target: CYP2C9 (Homo sapiens (Human), UniProt P11712); assay: Cytochrome P450 inhibition in human liver microsomes, CYP2C9
[4] = Metabolic stability assay in human liver microsomes (HLM); type: in vitro ADME; conditions: 1 μM
Protocol: (§1) Protocol 1: Studies were carried out in human and rat liver microsomes (“HLM” and “RLM,” respectively). Human and rat liver microsomes were purchased from BD Gentest. DMSO stocks were prepared for the test compounds. Aliquots of the DMSO solutions were diluted to 0.5 mM by acetonitrile, then further diluted by liver microsomes/buffer to 1.5 μM. 30 μL of 1.5 μM solutions were mixed with 15 μL of 6 mM NADPH, which had been pre-warmed to 37° C., at a final test compound concentration of 1 μM. The plates were kept in a 37° C. water bath for the duration of the experiment. At each time point (0, 5, 15, 30, 45 minutes), 135 μL of acetonitrile was added into corresponding wells. After the final time point was sampled, the plates were shaken at a vibrator (IKA, MTS 2/4) for 10 min (600 rpm/min) and then centrifuged at 5594 g for 15 min (Thermo Multifuge×3R). Aliquots of the supernatant were removed, diluted 1:1 into distilled water, and analyzed by LC-MS/MS. The peak area response ratio to internal standard (PARR) of the compounds at 5, 15, 30, 45 minutes was compared to the PARR at time 0 to determine the percent of test compound remaining at each time point. Half-lives were calculated using Excel software, fitting to a single-phase exponential decay equation.
(§2) Protocol 2: Studies were carried out in human and rat liver microsomes. Buffer solutions were prepared as follows: Buffer A: 1.0 L of 0.1 M monobasic Potassium Phosphate buffer containing 1.0 mM EDTA; Buffer B: 1.0 L of 0.1 M Dibasic Potassium Phosphate buffer containing 1.0 mM EDTA; Buffer C: 0.1 M Potassium Phosphate buffer, 1.0 mM EDTA, pH 7.4 by titrating 700 mL of buffer B with buffer A while monitoring with a pH meter.
(§3) Reference compound (Ketanserin) and test compound spiking solutions were prepared as follows: 500 μM spiking solution: add 10 μL of 10 mM DMSO stock solution into 190 μL ACN; 1.5 μM spiking solution in microsomes (0.75 mg/mL): add 1.5 μL of 500 μM spiking solution and 18.75 μL of 20 mg/mL liver microsomes into 479.75 μL of Buffer C.
(§4) NADPH stock solution (6 mM) was prepared by dissolving NADPH into buffer C.
(§5) Assay procedure: 30 μL of 1.5 μM spiking solution containing 0.75 mg/mL microsomes solution was dispensed to the wells designated for […]. The plate was pre-incubated at 37° C. for 10 minutes. 15 μL of NADPH stock solution (6 mM) was added to the wells designated as Time 45, and the timer was started. At 30 mM, 15 mM, and 5 mM, 15 μL NADPH stock solution (6 mM) was added to the wells, respectively. At the end of incubation (0 mM), 135 μL of ACN containing IS was added to all the wells. Then 15 μL of NADPH stock solution (6 mM) was added to the wells designated as Time 0. After quenching, the reaction mixtures were centrifuged at 3220 g for […]. Following centrifugation, 50 μL of the supernatant was transferred from each well into a 96-well sample plate containing 50 μL of ultra-pure water (Millipore) for LC/MS analysis. The peak area response (PARR) ratio to internal standard of the compounds at 5, 15, 30, and 45 minutes was compared to the PARR at time 0 to determine the percent of test compound remaining at each time point. Half-lives were calculated using Excel software, fitting to a single-phase exponential decay equation.

[5] = Metabolic stability assay in rat liver microsomes (RLM); type: in vitro ADME; conditions: 1 μM
Protocol: as §1, §2, §3, §4, §5

[6] = Human plasma stability; type: in vitro ADME; conditions: plasma
Protocol: Protocol 1: Studies were carried out in human plasma. All plasma was obtained from Bioreclamation and collected on sodium heparin. Plasma was adjusted to pH 7.4. A DMSO stock was first prepared for the test compound. An aliquot of the DMSO solution was dosed into 1 mL of plasma, which had been pre-warmed to 37° C., at a final test compound concentration of 1 μM. The vials were kept in a benchtop Thermomixer® for the duration of the experiment. Aliquots (100 μL) were taken at each time point (0, 15, 30, 60, and 120 minutes) and added to 96-well plates which had been pre-filled with 300 μL of acetonitrile. Samples were stored at 4° C. until the end of the experiment. After the final time point was sampled, the plate was mixed and then centrifuged at 3,000 rpm for 10 minutes. Aliquots of the supernatant were removed, diluted 1:1 into distilled water, and analyzed by LC-MS/MS. The peak area response ratio to internal standard (PARR) of the compound at 15, 30, 60 and 120 minutes was compared to the PARR at time 0 to determine the percent of test compound remaining at each time point. Half-lives were calculated using GraphPad software, fitting to a single-phase exponential decay equation.
Protocol 2: Studies were carried out in plasma. Plasma was prepared under approval of IRB and IACUC on sodium heparin. The pH of plasma was monitored and used within the range of pH 7.4 to pH 8.0. DMSO stocks were prepared for the test compounds. Aliquots of the DMSO solutions were diluted to 0.05 mM by 0.05 mM Sodium phosphate buffer with 0.5% BSA. Then 10 μL of 0.05 mM solutions were dosed into 90 μL of plasma in duplicates (n=2), which had been pre-warmed to 37° C., at a final test compound concentration of 5 μM. The plates were kept in a 37° C. water bath for the duration of the experiment. At each time point (0, 5, 15, 30, 45, 60, and 120 minutes), 400 μL of acetonitrile was added into corresponding wells. After the final time point was sampled, the plates were shaken at the vibrator (IKA, MTS 2/4) for 10 min (600 rpm/min) and then centrifuged at 5594 g for 15 min (Thermo Multifuge×3R). Aliquots of the supernatant were removed, diluted 1:1 into distilled water, and analyzed by LC-MS/MS. The peak area response ratio to internal standard (PARR) of the compounds at 5, 15, 30, 45, 60, and 120 minutes was compared to the PARR at time 0 to determine the percent of test compound remaining at each time point. Half-lives were calculated using Excel software, fitting to a single-phase exponential decay equation.

[7] = molecular target: rat brain nicotinic receptor (α7 NAChR) (Rattus norvegicus (Rat), UniProt Q05941); type: binding
[8] = molecular target: CYP3A4 (Homo sapiens (Human), UniProt P08684); assay: Cytochrome P450 inhibition in human liver microsomes, CYP3A4
[9] = read-out: 2C19 IC50, Protocol 2

Chain of CYP3A4 (P08684 whole entry): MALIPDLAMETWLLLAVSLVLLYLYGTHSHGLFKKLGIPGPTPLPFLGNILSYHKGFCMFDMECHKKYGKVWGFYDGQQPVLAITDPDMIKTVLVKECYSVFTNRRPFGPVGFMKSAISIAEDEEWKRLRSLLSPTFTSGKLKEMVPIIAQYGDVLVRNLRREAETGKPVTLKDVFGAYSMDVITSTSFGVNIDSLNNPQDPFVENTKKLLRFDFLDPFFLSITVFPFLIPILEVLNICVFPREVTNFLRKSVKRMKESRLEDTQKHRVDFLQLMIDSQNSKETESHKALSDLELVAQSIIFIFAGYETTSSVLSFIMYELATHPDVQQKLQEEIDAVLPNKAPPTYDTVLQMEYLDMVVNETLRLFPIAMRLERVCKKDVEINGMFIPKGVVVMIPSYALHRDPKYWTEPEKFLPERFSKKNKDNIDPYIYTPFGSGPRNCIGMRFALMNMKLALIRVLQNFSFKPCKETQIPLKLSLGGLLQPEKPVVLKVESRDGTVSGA
Chain of CYP2C9 (P11712 whole entry): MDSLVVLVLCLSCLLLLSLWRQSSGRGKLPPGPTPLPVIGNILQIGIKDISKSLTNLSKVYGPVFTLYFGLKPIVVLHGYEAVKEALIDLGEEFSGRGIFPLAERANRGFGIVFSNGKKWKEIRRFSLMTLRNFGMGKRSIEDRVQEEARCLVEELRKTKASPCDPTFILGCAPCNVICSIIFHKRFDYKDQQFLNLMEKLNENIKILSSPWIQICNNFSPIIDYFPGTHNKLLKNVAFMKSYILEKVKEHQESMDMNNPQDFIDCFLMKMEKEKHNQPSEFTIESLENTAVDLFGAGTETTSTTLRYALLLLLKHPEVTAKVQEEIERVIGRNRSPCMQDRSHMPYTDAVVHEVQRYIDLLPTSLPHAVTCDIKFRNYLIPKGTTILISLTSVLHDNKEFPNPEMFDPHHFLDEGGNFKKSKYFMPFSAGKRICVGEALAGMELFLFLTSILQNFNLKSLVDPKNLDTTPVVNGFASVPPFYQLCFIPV
Chain of CYP1A2 (P05177 whole entry): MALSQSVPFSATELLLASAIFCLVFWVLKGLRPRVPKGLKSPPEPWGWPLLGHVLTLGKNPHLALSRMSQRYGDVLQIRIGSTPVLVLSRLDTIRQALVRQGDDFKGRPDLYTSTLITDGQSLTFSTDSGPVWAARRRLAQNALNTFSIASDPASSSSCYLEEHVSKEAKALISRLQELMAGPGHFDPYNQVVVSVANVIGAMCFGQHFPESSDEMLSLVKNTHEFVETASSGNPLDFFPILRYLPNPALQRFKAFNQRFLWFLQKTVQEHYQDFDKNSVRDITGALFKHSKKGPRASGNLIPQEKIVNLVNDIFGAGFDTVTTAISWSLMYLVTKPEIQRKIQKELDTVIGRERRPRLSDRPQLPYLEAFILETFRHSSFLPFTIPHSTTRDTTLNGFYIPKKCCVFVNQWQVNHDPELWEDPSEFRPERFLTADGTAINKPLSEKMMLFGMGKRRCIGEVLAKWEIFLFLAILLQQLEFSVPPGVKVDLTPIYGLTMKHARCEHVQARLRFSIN
Chain of CYP2C19 (P33261 whole entry): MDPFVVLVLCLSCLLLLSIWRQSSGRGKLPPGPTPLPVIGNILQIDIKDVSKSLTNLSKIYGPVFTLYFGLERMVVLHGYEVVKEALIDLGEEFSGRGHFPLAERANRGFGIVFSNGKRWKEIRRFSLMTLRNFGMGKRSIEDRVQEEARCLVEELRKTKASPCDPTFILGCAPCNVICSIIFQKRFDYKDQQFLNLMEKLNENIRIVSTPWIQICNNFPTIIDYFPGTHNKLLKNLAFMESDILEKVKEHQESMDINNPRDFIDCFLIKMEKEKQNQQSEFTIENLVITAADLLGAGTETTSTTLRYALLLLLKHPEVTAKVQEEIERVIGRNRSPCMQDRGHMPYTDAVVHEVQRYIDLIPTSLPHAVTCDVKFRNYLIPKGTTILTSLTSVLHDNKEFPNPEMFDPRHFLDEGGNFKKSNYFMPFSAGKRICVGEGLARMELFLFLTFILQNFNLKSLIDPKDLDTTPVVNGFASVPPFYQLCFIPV
Chain of rat brain nicotinic receptor (α7 NAChR) (Q05941 23-502 limits assumed): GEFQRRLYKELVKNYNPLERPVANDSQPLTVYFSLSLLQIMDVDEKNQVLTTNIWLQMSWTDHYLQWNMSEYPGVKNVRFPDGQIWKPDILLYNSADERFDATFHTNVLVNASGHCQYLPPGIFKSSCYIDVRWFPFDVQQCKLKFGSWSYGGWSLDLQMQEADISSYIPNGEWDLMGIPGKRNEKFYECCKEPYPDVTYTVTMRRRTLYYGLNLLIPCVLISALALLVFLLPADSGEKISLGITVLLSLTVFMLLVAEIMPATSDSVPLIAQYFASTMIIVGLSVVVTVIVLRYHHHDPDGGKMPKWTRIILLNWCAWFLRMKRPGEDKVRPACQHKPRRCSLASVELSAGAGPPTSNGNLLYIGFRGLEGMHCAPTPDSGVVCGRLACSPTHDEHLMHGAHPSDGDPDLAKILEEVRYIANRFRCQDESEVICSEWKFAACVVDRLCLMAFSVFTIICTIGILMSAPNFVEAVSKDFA

SMILES | IC50 ([1]; read-out: 1A2 IC50, Protocol 2) [nM] | IC50 [2, 9] [nM] | IC50 ([3]; read-out: 2C9 IC50, Protocol 2) [nM] | HLM ([4]; human, microsomes, pH 7.4) [mL/min/kg] | RLM ([5]; rat, microsomes, pH 7.4) [mL/min/kg] | % Remaining @ 2 h ([6]; human, 2 h, 1 μM, pH 7.4) [%] | half-life at 1 μM ([6]; human, pH 7.4) [min] | IC50 [7] [nM] | Ki [7] [nM] | IC50 ([8]; read-out: 3A4 IC50 (Midazolam), substrate midazolam, Protocol 2) [nM] | IC50 ([8]; read-out: 3A4 IC50 (Midazolam), substrate midazolam, Protocol 1) [nM] | IC50 ([8]; read-out: 3A4 IC50 (Testosterone), substrate testosterone, Protocol 1) [nM] | IC50 ([1]; read-out: 1A2 IC50, Protocol 1) [nM] | IC50 ([2]; read-out: 2C19 IC50, Protocol 1) [nM] | IC50 ([3]; read-out: 2C9 IC50, Protocol 1) [nM] | HLM ([4]; Protocol No. 1, human liver microsomes) [mL/min/kg] | RLM ([5]; Protocol No. 1, rat liver microsomes) [mL/min/kg] | % Remaining @ 2 h ([6]; Protocol No. 2, 5 μM, 37° C.) [%]
N#Cc1ccc2c(C(=O)OCC34CCN(CC3)CC4)c[nH]c2c1 [Compound 28, quinuclidin-4-ylmethyl 6-cyano-1H-indole-3-carboxylate] | > 10000 | > 10000 | > 10000 | <13.608 | 28.4342 | 79 | > 120 |  |  |  |  |  |  |  |  |  |  | 
O=C(OCC12CCN(CC1)CC2)c1c[nH]c2ccc(F)cc12 [Compound 12, quinuclidin-4-ylmethyl 5-fluoro-1H-indole-3-carboxylate] | > 10000 | > 10000 | > 10000 | <13.608 | 208.73 | 31 | 73.8 | 86.5 | 75.1 |  |  |  |  |  |  |  |  | 
COc1ccc2[nH]cc(C(=O)OCC34CCN(CC3)CC4)c2c1C [Compound 34, quinuclidin-4-ylmethyl 5-methoxy-4-methyl-1H-indole-3-carboxylate] | > 10000 | > 10000 | > 10000 | <13.608 | 125.64 | 55 | > 120 | 23.6 | 20.4 |  |  |  |  |  |  |  |  | 
COc1cccc2[nH]cc(C(=O)OCC34CCN(CC3)CC4)c12 [Compound 36, quinuclidin-4-ylmethyl 4-methoxy-1H-indole-3-carboxylate] | > 10000 |  |  | <13.608 | 52.02 | 2.5 | 28 | 48.9 | 42.3 |  |  |  |  |  |  |  |  | 
O=C(OCC12CCN(CC1)CC2)c1c[nH]c2cc(F)ccc12 [Compound 11, quinuclidin-4-ylmethyl 6-fluoro-1H-indole-3-carboxylate] | > 10000 |  |  | <13.608 | 97.6892 |  |  | 261 | 228 | > 10000 |  |  |  |  |  |  |  | 
COc1ccc2c(C(=O)OCC34CCN(CC3)CC4)c[nH]c2c1 [Compound 10, quinuclidin-4-ylmethyl 6-methoxy-1H-indole-3-carboxylate] | > 10000 |  |  | <13.608 | 36.72 |  | > 120 |  |  |  |  |  |  |  |  |  |  | 
Cc1ccc2[nH]cc(C(=O)OCC34CCN(CC3)CC4)c2c1 [Compound 20, quinuclidin-4-ylmethyl 5-methyl-1H-indole-3-carboxylate] | > 10000 |  |  | <13.608 | 276.124 | 14 | 41.2 | 68.1 | 60.1 |  |  |  |  |  |  |  |  | 
Cl.O=C(OCC12CCN(CC1)CC2)c1c[nH]c2cc(Cl)c(F)cc12 [Compound 52, Quinuclidin-4-ylmethyl 6-chloro-5-fluoro-1H-indole-3-carboxylate hydrochloride] |  |  |  |  |  |  |  |  |  |  | > 10000 | > 10000 | > 10000 | > 10000 | > 10000 | 4.003 | 345.506 | 85.8425
COc1ccc2[nH]cc(C(=O)OCC34CCN(CC3)CC4)c2c1 [Compound 18, quinuclidin-4-ylmethyl 5-methoxy-1H-indole-3-carboxylate] | > 10000 | > 10000 | > 10000 | <13.608 | 47.8757 | 5.8 | 29.2 | 32.6 | 28.3 |  |  |  |  |  |  |  |  | 
O=C(OCC12CCN(CC1)CC2)c1c[nH]c2ccc(O)cc12 [Compound 15, quinuclidin-4-ylmethyl 5-hydroxy-1H-indole-3-carboxylate] | > 10000 | > 10000 | > 10000 | <13.608 | 25.92 |  |  | 153 | 132 |  |  |  |  |  |  |  |  | 
COc1ccc2c(C(=O)OCC34CCN(CC3)CC4)c[nH]c2c1 [Compound 17, quinuclidin-4-ylmethyl 6-methoxy-1H-indole-3-carboxylate] | > 10000 |  |  | <13.608 | 38.1652 |  |  | 376 | 329 |  |  |  |  |  |  |  |  | 
O=C(OCC12CCN(CC1)CC2)c1c[nH]c2ccccc12 [Compound 1, quinuclidin-4-ylmethyl 1H-indole-3-carboxylate] | > 10000 | > 10000 | > 10000 | <13.608 | 105.84 | 11 | 38.5 | 31.8 | 27.6 |  |  |  |  |  |  |  |  | 
COc1cccc2c(C(=O)OCC34CCN(CC3)CC4)c[nH]c12 [Compound 16, quinuclidin-4-ylmethyl 7-methoxy-1H-indole-3-carboxylate] | > 10000 | > 10000 | > 10000 | <13.608 | 82.6672 |  |  | 1400 | 1210 |  |  |  |  |  |  |  |  | 
